This passage reports IC50 and Ki results from ChEMBL document CHEMBL1909046, “DrugMatrix in vitro pharmacology data”.

In experiment [1] the target is Mitogen-activated protein kinase 3 (Homo sapiens, UniProt P27361). Kind of experiment: DRUGMATRIX: Protein Serine/Threonine Kinase, ERK1 enzyme inhibition (substrate: Myelin Basic Protein). Further details: species or system Escherichia coli. The settings on record: Not Active = under 50% inhibition at 10 µM.
Another experiment addresses D(3) dopamine receptor (Homo sapiens, UniProt P35462). Kind of experiment: DRUGMATRIX: Dopamine D3 radioligand binding (ligand: [3H] Spiperone). The following applies: cho. In kind it is cell membranes, CHO, Membrane.
A short description of experiment [2]: DRUGMATRIX: Glutamate, NMDA, Agonism radioligand binding (ligand: [3H] CGP-39653). Format: cell membranes, Rattus norvegicus, Wistar, Cerebral cortex, Membrane. The settings on record: Not Active = under 50% inhibition at 10 µM.
Another experiment has as its target T1, Cathepsin G (Homo sapiens, UniProt P08311).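 Also: inhibition of Cathepsin G enzyme activity, tested on an AMC-conjugated peptide substrate; in other assays of this panel Not Active means under 50% inhibition at 10 µM.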
T1 sequence (P08311 whole entry): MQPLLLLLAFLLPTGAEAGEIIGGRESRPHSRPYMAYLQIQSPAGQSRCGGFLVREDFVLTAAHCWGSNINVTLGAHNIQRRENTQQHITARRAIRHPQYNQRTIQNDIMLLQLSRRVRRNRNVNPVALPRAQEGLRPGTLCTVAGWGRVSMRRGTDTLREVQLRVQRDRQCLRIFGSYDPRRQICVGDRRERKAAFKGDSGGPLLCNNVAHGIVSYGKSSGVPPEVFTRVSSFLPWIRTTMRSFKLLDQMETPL
In kind it is tissue-based. The settings on record: neutrophil.

In experiment [3] the target is T2, Amine oxidase [flavin-containing] A (Homo sapiens, UniProt P21397).
T2 sequence (P21397 whole entry): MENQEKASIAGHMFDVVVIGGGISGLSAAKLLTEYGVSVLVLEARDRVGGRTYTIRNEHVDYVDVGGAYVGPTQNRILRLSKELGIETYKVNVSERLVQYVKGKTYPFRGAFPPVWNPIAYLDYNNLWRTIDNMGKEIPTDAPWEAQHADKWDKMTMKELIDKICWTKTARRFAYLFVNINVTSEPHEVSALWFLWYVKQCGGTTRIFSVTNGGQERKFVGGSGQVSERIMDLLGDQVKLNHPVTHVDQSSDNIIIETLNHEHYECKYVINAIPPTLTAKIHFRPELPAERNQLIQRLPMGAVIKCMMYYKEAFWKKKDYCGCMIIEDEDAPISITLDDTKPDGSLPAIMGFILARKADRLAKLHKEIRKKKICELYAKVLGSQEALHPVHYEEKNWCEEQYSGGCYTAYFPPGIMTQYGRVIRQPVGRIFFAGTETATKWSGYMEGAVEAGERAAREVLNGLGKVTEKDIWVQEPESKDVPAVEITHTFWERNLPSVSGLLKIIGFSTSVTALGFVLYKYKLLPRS
Nature of the experiment: DRUGMATRIX: Monoamine Oxidase MAO-A enzyme inhibition (substrate: Kynuramine). The following applies: bti-tn-5b1-4; Not Active = under 50% inhibition at 10 µM. The arrangement: species or system BTI-TN-5B1-4.

Experiment [4] addresses T3, Muscarinic acetylcholine receptor M5 (Homo sapiens, UniProt P08912).
T3 sequence (P08912 whole entry): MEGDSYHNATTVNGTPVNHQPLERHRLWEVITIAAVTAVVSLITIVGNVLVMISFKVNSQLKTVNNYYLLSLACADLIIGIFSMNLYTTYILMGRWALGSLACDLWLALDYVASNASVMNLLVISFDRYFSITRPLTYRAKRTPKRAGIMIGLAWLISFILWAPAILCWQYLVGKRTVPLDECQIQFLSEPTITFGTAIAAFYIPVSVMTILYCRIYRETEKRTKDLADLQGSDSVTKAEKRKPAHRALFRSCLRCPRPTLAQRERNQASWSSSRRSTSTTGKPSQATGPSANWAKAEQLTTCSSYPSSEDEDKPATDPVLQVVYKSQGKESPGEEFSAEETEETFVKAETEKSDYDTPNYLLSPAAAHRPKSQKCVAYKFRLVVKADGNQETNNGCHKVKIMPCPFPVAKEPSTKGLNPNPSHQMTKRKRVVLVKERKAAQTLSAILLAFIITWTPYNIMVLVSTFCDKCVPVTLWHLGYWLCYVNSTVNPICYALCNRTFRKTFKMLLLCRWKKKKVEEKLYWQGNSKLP
Format: cell membranes, Membrane. The settings on record: cho-k1.

The target of the next experiment is Carbonic anhydrase 2 (Homo sapiens, UniProt P00918). Kind of experiment: DRUGMATRIX: Carbonic Anhydrase II enzyme inhibition (substrate: 4-Nitrophenyl acetate (4-NPA)). In kind it is tissue-based, Erythrocyte. The settings on record: erythrocyte; Not Active = under 50% inhibition at 10 µM.

Chain of Mitogen-activated protein kinase 3 (P27361 whole entry): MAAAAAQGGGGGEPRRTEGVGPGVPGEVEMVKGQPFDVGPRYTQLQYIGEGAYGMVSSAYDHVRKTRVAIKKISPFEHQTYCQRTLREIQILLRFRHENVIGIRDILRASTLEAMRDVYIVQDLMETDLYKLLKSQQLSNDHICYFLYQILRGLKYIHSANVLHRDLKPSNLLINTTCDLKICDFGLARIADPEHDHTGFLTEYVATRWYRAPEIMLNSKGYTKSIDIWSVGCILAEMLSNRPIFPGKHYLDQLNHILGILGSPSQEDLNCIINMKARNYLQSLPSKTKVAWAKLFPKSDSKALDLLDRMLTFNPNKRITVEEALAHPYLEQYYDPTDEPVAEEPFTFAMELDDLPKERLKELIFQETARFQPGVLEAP
Chain of D(3) dopamine receptor (P35462 whole entry): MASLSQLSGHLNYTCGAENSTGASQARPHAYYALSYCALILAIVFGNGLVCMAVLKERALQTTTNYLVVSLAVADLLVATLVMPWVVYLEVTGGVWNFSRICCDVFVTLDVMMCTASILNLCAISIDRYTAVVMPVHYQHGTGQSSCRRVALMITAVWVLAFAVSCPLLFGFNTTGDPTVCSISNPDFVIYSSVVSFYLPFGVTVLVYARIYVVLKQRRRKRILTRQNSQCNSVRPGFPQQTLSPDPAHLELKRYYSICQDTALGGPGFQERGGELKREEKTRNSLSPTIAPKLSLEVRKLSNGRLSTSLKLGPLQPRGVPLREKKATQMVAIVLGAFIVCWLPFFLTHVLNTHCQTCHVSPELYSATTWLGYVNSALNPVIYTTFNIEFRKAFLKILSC

With `CO[C@H]1C[C@@H]2CC[C@@H](C)[C@@](O)(O2)C(=O)C(=O)N2CCCC[C@H]2C(=O)O[C@H]([C@H](C)C[C@@H]2CC[C@@H](O)[C@H](OC)C2)CC(=O)[C@H](C)/C=C(\C)[C@@H](O)[C@@H](OC)C(=O)[C@H](C)C[C@H](C)/C=C/C=C/C=C/1C` [SIROLIMUS], the IC50 entry (in experiment [1]; on D(3) dopamine receptor; in experiment [2]; against Cathepsin G; in experiment [3]; in experiment [4]) was “Not Active” throughout. For the same compound, the half-inhibitory concentration (IC50) (commonly the point on the concentration scale where inhibition reaches its midpoint) against Carbonic anhydrase 2 is “Not Active”. The Ki (in general, the dissociation constant of the complex between target and ligand, obtained from inhibition or displacement) in experiment [2] is reported as “Not Active”.
As to `CN[C@@H]1[C@H](O)[C@H](NC)[C@H]2O[C@@]3(O)C(=O)C[C@@H](C)O[C@H]3O[C@@H]2[C@H]1O` [SPECTINOMYCIN], the IC50 result (in experiment [1]; at D(3) dopamine receptor; in experiment [2]; against Cathepsin G; in experiment [3]; in experiment [4]) was “Not Active” in each case. Also, the IC50 entry on Carbonic anhydrase 2 is “Not Active”. The Ki result in experiment [2] is on record as “Not Active”.
For the compound `COc1ncnc(NS(=O)(=O)c2ccc(N)cc2)c1OC` [SULFADOXINE], the IC50 result (in experiment [1]; at D(3) dopamine receptor; in experiment [2]; on Cathepsin G; in experiment [3]; in experiment [4]) was “Not Active” throughout. Also, the IC50 entry against Carbonic anhydrase 2 was “Not Active”. The Ki result in experiment [2] is given as “Not Active”.
Take `Nc1ccc(S(=O)(=O)Nc2nccs2)cc1` [SULFATHIAZOLE]: the IC50 entry (in experiment [1]; at D(3) dopamine receptor; in experiment [2]; on Cathepsin G; in experiment [3]; in experiment [4]) was “Not Active” in each case. Besides, at Carbonic anhydrase 2, the IC50 entry is “Not Active”. The Ki result in experiment [2] is on record as “Not Active”.
On to `C[C@]12CC[C@H]3[C@@H](CCC4=CC(=O)CC[C@@]43C)[C@@H]1CC[C@@H]2O` [TESTOSTERONE], for which the IC50 result (in experiment [1]; on D(3) dopamine receptor; in experiment [2]; on Cathepsin G; in experiment [3]; in experiment [4]) was “Not Active” throughout. Besides, the IC50 entry against Carbonic anhydrase 2 is “Not Active”. Besides, the Ki result in experiment [2] is reported as “Not Active”.
With `CC(C)(C)NC[C@H](O)COc1nsnc1N1CCOCC1` [TIMOLOL], the IC50 result (in experiment [1]; at D(3) dopamine receptor; in experiment [2]; at Cathepsin G; in experiment [3]; in experiment [4]) was “Not Active” throughout. The IC50 result against Carbonic anhydrase 2 is “Not Active”. Moreover, the Ki entry in experiment [2] was “Not Active”.
`CCS(=O)(=O)CCn1c([N+](=O)[O-])cnc1C` [TINIDAZOLE]: the IC50 result (in experiment [1]; at D(3) dopamine receptor; in experiment [2]; on Cathepsin G; in experiment [3]; in experiment [4]) was “Not Active” each time. Also, the IC50 result against Carbonic anhydrase 2 is “Not Active”. Moreover, the Ki result in experiment [2] is listed as “Not Active”.
With `C[C@@H]1C[C@H]2[C@@H]3CCC4=CC(=O)C=C[C@]4(C)C3=CC[C@]2(C)[C@H]1C(=O)CN1CCN(c2cc(N3CCCC3)nc(N3CCCC3)n2)CC1` [TIRILAZAD], the IC50 is 16.3 µM in experiment [1] (read-out: IC50); “Not Active” on D(3) dopamine receptor; “Not Active” in experiment [2]; “Not Active” against Cathepsin G; “Not Active” in experiment [3]; “Not Active” in experiment [4]. Further, the IC50 entry against Carbonic anhydrase 2 is “Not Active”. Moreover, the inhibitory constant (Ki) result in experiment [2] was “Not Active”.
Consider `NC[C@H]1O[C@H](O[C@H]2[C@H](O)[C@@H](O[C@H]3O[C@H](CO)[C@@H](O)[C@H](N)[C@H]3O)[C@H](N)C[C@@H]2N)[C@H](N)C[C@@H]1O` [TOBRAMYCIN], for which the IC50 entry (in experiment [1]; at D(3) dopamine receptor; in experiment [2]; on Cathepsin G; in experiment [3]; in experiment [4]) was “Not Active” each time. Also, at Carbonic anhydrase 2, the IC50 entry is “Not Active”. Besides, the Ki entry in experiment [2] is on record as “Not Active”.
With `O=C(O)C(Cl)(Cl)Cl` [TRICHLOROACETIC ACID], the IC50 result (in experiment [1]; on D(3) dopamine receptor; in experiment [2]; against Cathepsin G; in experiment [3]; in experiment [4]) was “Not Active” each time. In addition, the IC50 entry against Carbonic anhydrase 2 is listed as “Not Active”. Besides, in experiment [2], the Ki entry was “Not Active”.
Regarding `COc1ccc(CN2CCNCC2)c(OC)c1OC` [TRIMETAZIDINE], the IC50 result (in experiment [1]; at D(3) dopamine receptor; in experiment [2]; at Cathepsin G; in experiment [3]; in experiment [4]) was “Not Active” each time. For the same compound, the IC50 entry at Carbonic anhydrase 2 is given as “Not Active”. Moreover, the Ki result in experiment [2] is given as “Not Active”.
In the case of `CC(=O)O[C@H]1C[C@@H]2CC[C@@H]3[C@H](CC[C@@]4(C)[C@H]3C[C@H]([N+]3(C)CCCCC3)[C@@H]4OC(C)=O)[C@@]2(C)C[C@@H]1N1CCCCC1.[Br-]` [VECURONIUM BROMIDE], the IC50 result (in experiment [1]; at D(3) dopamine receptor; in experiment [2]; at Cathepsin G; in experiment [3]; in experiment [4]) was “Not Active” throughout. At Carbonic anhydrase 2, the IC50 entry is “Not Active”. In addition, the Ki result in experiment [2] was “Not Active”.
Turning to `COc1cc(C(=O)NS(=O)(=O)c2ccccc2C)ccc1Cc1cn(C)c2ccc(NC(=O)OC3CCCC3)cc12` [ZAFIRLUKAST], the IC50 in experiment [1] (read-out: IC50) was 4.38 µM; on D(3) dopamine receptor, “Not Active”; in experiment [2], “Not Active”; on Cathepsin G it was “Not Active”; in experiment [3], “Not Active”; in experiment [4] it was “Not Active”. Also, the IC50 result against Carbonic anhydrase 2 was “Not Active”. Further, the Ki entry in experiment [2] is reported as “Not Active”.
For the compound `Cc1cn([C@H]2C[C@H](N=[N+]=[N-])[C@@H](CO)O2)c(=O)[nH]c1=O` [ZIDOVUDINE], the IC50 result (in experiment [1]; on D(3) dopamine receptor; in experiment [2]; against Cathepsin G; in experiment [3]; in experiment [4]) was “Not Active” in each case. For the same compound, the IC50 result against Carbonic anhydrase 2 was “Not Active”. Besides, the Ki result in experiment [2] is listed as “Not Active”.
Regarding STANNOUS FLUORIDE, the IC50 entry (in experiment [1]; on D(3) dopamine receptor; in experiment [2]; against Cathepsin G; in experiment [3]; in experiment [4]) was “Not Active” throughout. Also, the IC50 entry against Carbonic anhydrase 2 was “Not Active”. The Ki entry (in experiment [1]; at D(3) dopamine receptor; in experiment [2]; on Cathepsin G; in experiment [3]; in experiment [4]) was “Not Active” throughout. Also, at Carbonic anhydrase 2, the Ki result is “Not Active”.
Take THIMEROSAL: the IC50 is 0.774 µM in experiment [1] (read-out: IC50); 85 nM at D(3) dopamine receptor (read-out: IC50); “Not Active” in experiment [2]; “Not Active” against Cathepsin G; “Not Active” in experiment [3]; “Not Active” in experiment [4]. In addition, the IC50 entry against Carbonic anhydrase 2 is given as “Not Active”. Besides, the Ki at D(3) dopamine receptor (read-out: Ki) is 29 nM; in experiment [2], “Not Active”; at Cathepsin G it was “Not Active”; in experiment [3], “Not Active”; in experiment [4] it was “Not Active”; on Carbonic anhydrase 2, “Not Active”.
